Results taken from patent US12514908B2 (MAPI PHARMA LTD., priority 2021, dated 2026).
“And” between values parts separate entries of the source, which are not always exact repeats. Identical values can stand only once.

Key:
[1] = Example 4 semaglutide plasma concentrations in db/db mice; details: for Plasma concentrations, individual animals: SC, Daily, listed as Semaglutide API
[2] = in vivo; details: male, db/db, mouse, plasma, sc
[3] = Example 5 plasma concentrations and pharmacokinetic parameters in male Gottingen minipigs; assay type: in vivo
Method: […] At each time point, ˜2.0 ml of blood was withdrawn and transferred into a prelabeled K2EDTA coated vacutainers and mixed gently by inverting the tube to facilitate mixing of anticoagulant with the blood. Blood samples were kept on gel packs until centrifugation. The collected blood samples were centrifuged at 4,000 rpm for 10 min at 4° C. Plasma was separated after centrifugation. All plasma samples were transferred into pre-labeled (Animal ID No., Time point, Study No., and Group) tubes and stored at −70±10° C. until analysis. Blood glucose levels were determined for all blood collection time points.
Bioanalysis was performed using fit-for-purpose liquid chromatography mass spectrometry (LC-MS/MS) method for the quantification of semaglutide in plasma samples. Linearity range was 1 to 204 ng/ml. Semaglutide were extracted from mini pigs plasma samples using solid phase extraction technique and quantified using LC-MS/MS with Electro Spray Ionization (ESI) and multiple reaction monitoring (MRM) in positive ionization mode.

[4] = Example 6 semaglutide plasma levels in db/db mice; assay type: in vivo; details: 0.02 mg/kg/day SC daily
Method: Naïve control, n=5 • 2. Vehicle (db/db mice) SC administered daily (dose-(vehicle) 1 ml/kg/day, for 42 days), n=10 • 3.
Body weight and food consumption were monitored daily. Ad-lib fed blood glucose levels were measured every third day. Fasted blood glucose levels were measured on Day-14, Day-28 and Day-42. Glycated hemoglobin (hbA1c) levels were measured on Day-0, Day-28, and Day-42.

[5] = tested on: db/db mice; test: Example 4 death of an animal in db/db mice (Table 10B); assay type: in vivo; details: 0.4 mg/kg, SC, Daily, animal No. 3, after Day 7 (3 h), before Day 14

## CC[C@H](C)[C@H](NC(=O)[C@H](Cc1ccccc1)NC(=O)[C@H](CCC(=O)O)NC(=O)[C@H](CCCCNC(=O)COCCOCCNC(=O)COCCOCCNC(=O)CC[C@H](NC(=O)CCCCCCCCCCCCCCCCC(=O)O)C(=O)O)NC(=O)[C@H](C)NC(=O)[C@H](C)NC(=O)[C@H](CCC(N)=O)NC(=O)CNC(=O)[C@H](CCC(=O)O)NC(=O)[C@H](CC(C)C)NC(=O)[C@H](Cc1ccc(O)cc1)NC(=O)[C@H](CO)NC(=O)[C@H](CO)NC(=O)[C@@H](NC(=O)[C@H](CC(=O)O)NC(=O)[C@H](CO)NC(=O)[C@@H](NC(=O)[C@H](Cc1ccccc1)NC(=O)[C@@H](NC(=O)CNC(=O)[C@H](CCC(=O)O)NC(=O)C(C)(C)NC(=O)[C@@H](N)Cc1cnc[nH]1)[C@@H](C)O)[C@@H](C)O)C(C)C)C(=O)N[C@@H](C)C(=O)N[C@@H](Cc1c[nH]c2ccccc12)C(=O)N[C@@H](CC(C)C)C(=O)N[C@H](C(=O)N[C@@H](CCCNC(=N)N)C(=O)NCC(=O)N[C@@H](CCCNC(=N)N)C(=O)NCC(=O)O)C(C)C [semaglutide, [Aib8, Lys26 (γGlu-2xOEG-C18 acid), Arg34]-hGLP-1-(7-37)-OH]
[1]; 0.06 mg/kg, Day 1 (3 h), 0.06 mg/kg
  Plasma concentrations, individual animals: 230 ng/mL
[1]; 0.06 mg/kg, Day 7 (0 h), 0.06 mg/kg
  Plasma concentrations, individual animals: 206 ng/mL
[1]; 0.06 mg/kg, Day 7 (3 h), 0.06 mg/kg
  Plasma concentrations, individual animals: 855 ng/mL
[1]; 0.06 mg/kg, Day 21 (0 h), 0.06 mg/kg
  Plasma concentrations, individual animals: 171 ng/mL and 269 ng/mL
[1]; 0.06 mg/kg, Day 21 (3 h), 0.06 mg/kg
  Plasma concentrations, individual animals: 867 ng/mL
[1]; 0.06 mg/kg, Day 28 (0 h), 0.06 mg/kg
  Plasma concentrations, individual animals: 320 ng/mL and 257 ng/mL
[1]; 0.06 mg/kg, Day 28 (3 h), 0.06 mg/kg
  Plasma concentrations, individual animals: 474 ng/mL and 406 ng/mL
[1]; 0.06 mg/kg/day SC daily
  plasma levels at 3 hrs post injection: increase in plasma levels
[1]; 0.4 mg/kg, Day 1 (3 h), 0.4 mg/kg
  Plasma concentrations, individual animals: 1310 ng/mL
[1]; 0.4 mg/kg, Day 14 (3 h), 0.4 mg/kg
  Plasma concentrations, individual animals: 6500 ng/mL
[1]; 0.4 mg/kg, Day 21 (0 h), 0.4 mg/kg
  Plasma concentrations, individual animals: 2550 ng/mL
[1]; 0.4 mg/kg, Day 28 (0 h), 0.4 mg/kg
  Plasma concentrations, individual animals: 2880 ng/mL and 1460 ng/mL
[1]; 0.4 mg/kg, Day 28 (3 h), 0.4 mg/kg
  Plasma concentrations, individual animals: 6690 ng/mL
[1]; 0.4 mg/kg/day SC daily
  plasma levels 3 hrs post injection: increase in plasma levels
[1]; between 0.06 and 0.4 mg/kg daily doses
  dose dependence of the increase in plasma levels: dose proportional
[2]; 0.06 mg/kg/day
  level at 24 h: 100 to 500 ng/mL
[2]; 0.4 mg/kg/day
  level at 24 h: 500 to 4500 ng/mL
[3]; Group 2, repeated SC 0.008 mg/kg every 3 days until Day 28, n=3, 0 h
  Mean plasma concentrations of semaglutide: 0 ng/mL
[3]; minipig, plasma, Group 2, repeated SC 0.008 mg/kg every 3 days until Day 28, n=3, 6 h
  level at 6 h: 9.64 ng/mL
[3]; minipig, plasma, Group 2, repeated SC 0.008 mg/kg every 3 days until Day 28, n=3, 12 h
  level at 12 h: 10.2 ng/mL
[3]; minipig, plasma, Group 2, repeated SC 0.008 mg/kg every 3 days until Day 28, n=3, 24 h
  level at 24 h: 11 ng/mL
[3]; minipig, plasma, Group 2, repeated SC 0.008 mg/kg every 3 days until Day 28, n=3, 48 h
  level at 48 h: 9.67 ng/mL
[3]; minipig, plasma, Group 2, repeated SC 0.008 mg/kg every 3 days until Day 28, n=3, 72 h
  level at 72 h: 9.43 ng/mL
[3]; minipig, plasma, Group 2, repeated SC 0.008 mg/kg every 3 days until Day 28, n=3, 84 h
  level at 84 h: 17.7 ng/mL
[3]; minipig, plasma, Group 2, repeated SC 0.008 mg/kg every 3 days until Day 28, n=3, 144 h
  level at 144 h: 13.1 ng/mL
[3]; minipig, plasma, Group 2, repeated SC 0.008 mg/kg every 3 days until Day 28, n=3, 156 h
  level at 156 h: 35 ng/mL
[3]; minipig, plasma, Group 2, repeated SC 0.008 mg/kg every 3 days until Day 28, n=3, 216 h
  level at 216 h: 27.3 ng/mL
[3]; minipig, plasma, Group 2, repeated SC 0.008 mg/kg every 3 days until Day 28, n=3, 228 h
  level at 228 h: 31.3 ng/mL
[3]; minipig, plasma, Group 2, repeated SC 0.008 mg/kg every 3 days until Day 28, n=3, 288 h
  level at 288 h: 23 ng/mL
[3]; minipig, plasma, Group 2, repeated SC 0.008 mg/kg every 3 days until Day 28, n=3, 300 h
  level at 300 h: 21.3 ng/mL
[3]; minipig, plasma, Group 2, repeated SC 0.008 mg/kg every 3 days until Day 28, n=3, 360 h
  level at 360 h: 34 ng/mL
[3]; minipig, plasma, Group 2, repeated SC 0.008 mg/kg every 3 days until Day 28, n=3, 504 h (For G2)
  level at 504 h: 27.3 ng/mL
[3]; minipig, plasma, Group 2, repeated SC 0.008 mg/kg every 3 days until Day 28, n=3, 648 h (For G2)
  level at 648 h: 23.4 ng/mL
[3]; minipig, plasma, Group 2, repeated SC 0.008 mg/kg every 3 days until Day 28, n=3, 720 h (Day 30)
  level at 720 h: 27 ng/mL
[4]
  course of plasma levels: fluctuations with increase in plasma levels 3 h post injections
[5]
  Mortality (animal died): Animal died
